From the supplement of paper PMC4862054

Legend:
Conditions in all cases: incubation time: 72 h
[1] = system: Hs578T; assay: normalised viability (% of control), CellTiter-Blue; higher = more viable cells (about 100 = DMSO control)
Method in brief: (§1)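 Normalised viability is given for a single listed concentration of the series. In 384-well plates, breast cancer cell lines were incubated 72 h with compound, then read with CellTiter-Blue (2 h, 37 °C) at 560/590 nm. Per-plate scaling set vehicle to 100 and a positive kill control to 0, with Z'-factor quality control.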

[2] = system: MDA-MB-231; assay: as above
Method in brief: as §1

[3] = system: HCC1937; assay: as above
Method in brief: as §1

[4] = system: HDQ-P1; assay: as above
Method in brief: as §1

[5] = system: MDA-MB-436; assay: as above
Method in brief: as §1

[6] = system: CAL-120; assay: as above
Method in brief: as §1

[7] = system: CAL-148; assay: as above
Method in brief: as §1

[8] = system: HCC1599; assay: as above
Method in brief: as §1

[9] = system: MDA-MB-468; assay: as above
Method in brief: as §1

[10] = system: HCC1143; assay: as above
Method in brief: as §1

[11] = system: CAL-85-1; assay: as above
Method in brief: as §1

[12] = system: MDA-MB-231; assay: drug sensitivity score (DSS), CellTiter-Blue viability (DSS (AUC-based score)); higher = stronger viability inhibition; extreme values may be limits of the assay
Method: (§2)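 DSRT with the CellTiter-Blue (resazurin reduction) viability readout, fluorescence 560/590 nm, 72 h incubation. Plates were normalised to DMSO and benzethonium chloride controls. DSS is computed from the area under the fitted dose-response curve (5 or 9 concentrations).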

[13] = system: CAL-51; assay: as above
Method: as §2

[14] = system: HCC1937; assay: as above
Method: as §2

[15] = system: MFM-223; assay: as above
Method: as §2

[16] = system: CAL-120; assay: as above
Method: as §2

[17] = system: CAL-148; assay: as above
Method: as §2

[18] = system: HCC1599; assay: as above
Method: as §2

[19] = system: MDA-MB-468; assay: as above
Method: as §2

[20] = system: BT-474; assay: as above
Method: as §2

[21] = system: BT-549; assay: as above
Method: as §2

[22] = system: DU-4475; assay: as above
Method: as §2

[23] = system: MDA-MB-453; assay: as above
Method: as §2

[24] = system: HCC1143; assay: as above
Method: as §2

[25] = system: CAL-85-1; assay: as above
Method: as §2

Question: Which results are given for `CNC(=O)c1cc(Oc2ccc(NC(=O)Nc3ccc(Cl)c(C(F)(F)F)c3)c(F)c2)ccn1` [Regorafenib]?
Answer: normalised viability ([1]; 10 nM): 96.4%; normalised viability ([1]; 1000 nM): 90.7%; normalised viability ([1]; 10000 nM): 38.3%; normalised viability ([2]; 10 nM): 90.5%; normalised viability ([2]; 1000 nM): 68.1%; normalised viability ([2]; 10000 nM): 31.7%; normalised viability ([3]; 10 nM): 94.9%; normalised viability ([3]; 1000 nM): 90.3%; normalised viability ([3]; 10000 nM): 35.1%; normalised viability ([4]; 3 nM): 101%; normalised viability ([4]; 30 nM): 109%; normalised viability ([4]; 100 nM): 100%; normalised viability ([5]; 10 nM): 115%; normalised viability ([5]; 1000 nM): 102%; normalised viability ([5]; 10000 nM): 65.2%; normalised viability ([6]; 10 nM): 89.4%; normalised viability ([6]; 1000 nM): 102%; normalised viability ([6]; 10000 nM): 46%; normalised viability ([7]; 3 nM): 88%; normalised viability ([7]; 30 nM): 90.2%; normalised viability ([7]; 100 nM): 95.3%; normalised viability ([8]; 10 nM): 100%; normalised viability ([8]; 1000 nM): 107%; normalised viability ([8]; 10000 nM): 56.3%; normalised viability ([9]; 10 nM): 111%; normalised viability ([9]; 1000 nM): 116%; normalised viability ([9]; 10000 nM): 34.5%; normalised viability ([10]; 10 nM): 76.8%; normalised viability ([10]; 1000 nM): 77.8%; normalised viability ([10]; 10000 nM): 75.4%; normalised viability ([11]; 3 nM): 84.7%; normalised viability ([11]; 30 nM): 89.1%; normalised viability ([11]; 100 nM): 88%; drug sensitivity score [12]: 8.54; drug sensitivity score [13]: 3.37; drug sensitivity score [14]: 3.4; drug sensitivity score [15]: 9.2; drug sensitivity score [16]: 1.05; drug sensitivity score [17]: 0; drug sensitivity score [18]: 1.06; drug sensitivity score [19]: 1.71; drug sensitivity score [20]: 1.39; drug sensitivity score [21]: 1.64; drug sensitivity score [22]: 3.68; drug sensitivity score [23]: 5.4; drug sensitivity score [24]: 9.31; drug sensitivity score [25]: 0

Question: Which results are given for `CN(C)c1nc(N(C)C)nc(N(C)C)n1` [Altretamine]?
Answer: normalised viability ([1]; 10 nM): 107%; normalised viability ([1]; 1000 nM): 96.9%; normalised viability ([1]; 10000 nM): 102%; normalised viability ([2]; 10 nM): 99.7%; normalised viability ([2]; 1000 nM): 90.9%; normalised viability ([2]; 10000 nM): 106%; normalised viability ([3]; 10 nM): 100%; normalised viability ([3]; 1000 nM): 96.3%; normalised viability ([3]; 10000 nM): 88.6%; normalised viability ([4]; 3 nM): 107%; normalised viability ([4]; 30 nM): 92.7%; normalised viability ([4]; 100 nM): 112%; normalised viability ([5]; 10 nM): 102%; normalised viability ([5]; 1000 nM): 99.5%; normalised viability ([5]; 10000 nM): 85.5%; normalised viability ([6]; 10 nM): 88.6%; normalised viability ([6]; 1000 nM): 98.5%; normalised viability ([6]; 10000 nM): 105%; normalised viability ([7]; 3 nM): 99.5%; normalised viability ([7]; 30 nM): 96.7%; normalised viability ([7]; 100 nM): 104%; normalised viability ([8]; 10 nM): 95.7%; normalised viability ([8]; 1000 nM): 98.2%; normalised viability ([8]; 10000 nM): 73.5%; normalised viability ([9]; 10 nM): 94.5%; normalised viability ([9]; 1000 nM): 104%; normalised viability ([9]; 10000 nM): 103%; normalised viability ([10]; 10 nM): 74.7%; normalised viability ([10]; 1000 nM): 88.4%; normalised viability ([10]; 10000 nM): 91.2%; normalised viability ([11]; 3 nM): 105%; normalised viability ([11]; 30 nM): 91.5%; normalised viability ([11]; 100 nM): 119%; drug sensitivity score [12]: 0; drug sensitivity score [13]: 0; drug sensitivity score [14]: 0; drug sensitivity score [15]: 0; drug sensitivity score [16]: 0; drug sensitivity score [17]: 0; drug sensitivity score [18]: 1.24; drug sensitivity score [19]: 0; drug sensitivity score [20]: 0; drug sensitivity score [21]: 0; drug sensitivity score [22]: 0; drug sensitivity score [23]: 2.05; drug sensitivity score [24]: 0; drug sensitivity score [25]: 1.01

Question: How did the normalised viability ([1]; 10 nM) turn out when `COc1cc2/c(=N/c3ccc(Br)cc3F)nc[nH]c2cc1OCC1CCN(C)CC1` [Vandetanib] was run?
Answer: Its normalised viability is 108%.

Question: What about the normalised viability ([1]; 1000 nM) of the same compound?
Answer: Its normalised viability is 92.8%.

Question: What about the normalised viability ([1]; 10000 nM) of the same compound?
Answer: Its normalised viability is 50%.

Question: And the normalised viability ([2]; 10 nM)?
Answer: The normalised viability was 86%.

Question: And the normalised viability ([2]; 1000 nM)?
Answer: The normalised viability was 82.5%.

Question: What about the normalised viability ([2]; 10000 nM) of the same compound?
Answer: The normalised viability was 8.26%.

Question: And the normalised viability ([3]; 10 nM)?
Answer: Its normalised viability is 29.7%.

Question: What about the normalised viability ([3]; 1000 nM) of the same compound?
Answer: The normalised viability was 105%.

Question: What about the normalised viability ([3]; 10000 nM) of the same compound?
Answer: The normalised viability was 59.7%.

Question: What about the normalised viability ([4]; 3 nM) of the same compound?
Answer: The normalised viability was 76.8%.

Question: What about the normalised viability ([4]; 30 nM) of the same compound?
Answer: Its normalised viability is 72.1%.

Question: And the normalised viability ([4]; 100 nM)?
Answer: Its normalised viability is 59.3%.

Question: What about the normalised viability ([5]; 10 nM) of the same compound?
Answer: Its normalised viability is 76.4%.

Question: And the normalised viability ([5]; 1000 nM)?
Answer: Its normalised viability is 35.7%.

Question: And the normalised viability ([5]; 10000 nM)?
Answer: Its normalised viability is 30.1%.

Question: What about the normalised viability ([6]; 10 nM) of the same compound?
Answer: The normalised viability was 117%.

Question: And the normalised viability ([6]; 1000 nM)?
Answer: The normalised viability was 98.2%.

Question: What about the normalised viability ([6]; 10000 nM) of the same compound?
Answer: Its normalised viability is 17.6%.

Question: And the normalised viability ([7]; 3 nM)?
Answer: Its normalised viability is 96.2%.

Question: And the normalised viability ([7]; 30 nM)?
Answer: The normalised viability was 93.2%.

Question: And the normalised viability ([7]; 100 nM)?
Answer: Its normalised viability is 92.8%.

Question: And the normalised viability ([8]; 10 nM)?
Answer: Its normalised viability is 88.7%.

Question: And the normalised viability ([8]; 1000 nM)?
Answer: Its normalised viability is 107%.

Question: What about the normalised viability ([8]; 10000 nM) of the same compound?
Answer: Its normalised viability is 58.5%.

Question: And the normalised viability ([9]; 10 nM)?
Answer: Its normalised viability is 89.8%.

Question: What about the normalised viability ([9]; 1000 nM) of the same compound?
Answer: Its normalised viability is 74.3%.

Question: And the normalised viability ([9]; 10000 nM)?
Answer: The normalised viability was 28%.

Question: And the normalised viability ([10]; 10 nM)?
Answer: Its normalised viability is 122%.

Question: What about the normalised viability ([10]; 1000 nM) of the same compound?
Answer: The normalised viability was 99.7%.

Question: And the normalised viability ([10]; 10000 nM)?
Answer: Its normalised viability is 68.5%.

Question: What about the normalised viability ([11]; 3 nM) of the same compound?
Answer: Its normalised viability is 105%.

Question: And the normalised viability ([11]; 30 nM)?
Answer: Its normalised viability is 109%.

Question: What about the normalised viability ([11]; 100 nM) of the same compound?
Answer: The normalised viability was 101%.

Question: And the drug sensitivity score [12]?
Answer: The drug sensitivity score was 6.74.

Question: And the drug sensitivity score [13]?
Answer: The drug sensitivity score was 6.07.

Question: And the drug sensitivity score [14]?
Answer: Its drug sensitivity score is 0.

Question: And the drug sensitivity score [15]?
Answer: The drug sensitivity score was 8.55.

Question: What about the drug sensitivity score [16] of the same compound?
Answer: The drug sensitivity score was 3.15.

Question: What about the drug sensitivity score [17] of the same compound?
Answer: The drug sensitivity score was 0.

Question: And the drug sensitivity score [18]?
Answer: Its drug sensitivity score is 0.

Question: What about the drug sensitivity score [19] of the same compound?
Answer: Its drug sensitivity score is 6.11.

Question: And the drug sensitivity score [20]?
Answer: Its drug sensitivity score is 7.12.

Question: And the drug sensitivity score [21]?
Answer: The drug sensitivity score was 5.01.

Question: And the drug sensitivity score [22]?
Answer: Its drug sensitivity score is 0.

Question: What about the drug sensitivity score [23] of the same compound?
Answer: Its drug sensitivity score is 3.82.

Question: What about the drug sensitivity score [24] of the same compound?
Answer: Its drug sensitivity score is 0.583.

Question: What about the drug sensitivity score [25] of the same compound?
Answer: Its drug sensitivity score is 6.73.
